Test results as given in paper PMC6778019 (Contraception, 2019).
Where two headings read alike, the source gives them in different places.

How the values were obtained:
[1] = cited from earlier work; for EE AUC / LNG AUC: COC EE 30 mcg / norgestrel 300 mcg
[2] = Steady-state pharmacokinetics of LNG and EE from day 21 of a COC cycle; assay type: in vivo, HIV-positive women; conditions: for AUClast Change (%) / AUCτ Change (%) / CL Change (%) / Cmax Change (%) / Cmin Change (%) / T1/2 Change (%) / Tmax Change (%) / Vss Change (%): Ritonavir arm vs control arm; for concentration at 24 h: oral, concentration 24 h after the last dose; for concentration at 24 h / Cmax / AUC: mean±SD; for Cmax: last dose of the cycle; for AUC: LNG AUCτ, AUC 24 h of the last dose of the 21-day cycle
[3] = cited from earlier work
[4] = female, human, serum, po, T1/2, Ritonavir arm, half-life by NCA, median
[5] = COC users taking protease inhibitors

C#C[C@]1(O)CC[C@H]2[C@@H]3CCc4cc(O)ccc4[C@H]3CC[C@@]21C [EE, ethinyl estradiol]
EE AUC ([1]; women not taking nevirapine): 1457 ng·mL/h | EE AUC ([1]; women taking nevirapine): 1384 ng·mL/h | AUClast Change (%) [2]: 18.2% | AUCτ Change (%) [2]: 21.8% | CL Change (%) [2]: −15.1% | Cmax Change (%) [2]: 33.7% | Cmin Change (%) [2]: 8.5% | T1/2 Change (%) [2]: 10.5% | Tmax Change (%) [2]: 0.0% | Vss Change (%) [2]: −24.1% | Tmax ([2]; Ritonavir arm, median (95% Confidence interval)): 1.0 (1.0,2.9) h | Vss ([2]; Ritonavir arm, volume at steady state by NCA, median (95% Confidence interval)): 475 (370,671) L | EE pharmacokinetic profiles, ritonavir vs control ([2]; comparison between groups): not different between groups | concentration at 24 h ([2]; female, human, serum, EE Cmin, Control arm (n=10)): 0.0492 ± 0.0141 ng/mL | concentration at 24 h ([2]; female, human, serum, EE Cmin, Ritonavir arm): 0.0533 ± 0.0147 ng/mL | Tmax ([2]; female, human, serum, po): 1 h | Cmax ([2]; female, human, serum, po, EE Cmax, Control arm (n=10)): 0.163 ± 0.0438 ng/mL | half-life ([2]; female, human, serum, po, T1/2, Control arm (n=10), half-life by NCA, median): 28.4 h | half-life [2, 4]: 31.3 h

C#C[C@]1(O)CC[C@H]2[C@@H]3CCC4=CC(=O)CC[C@@H]4[C@H]3CC[C@@]21CC [LNG, levonorgestrel]
LNG AUC ([1]; women not taking nevirapine): 114 ng·mL/h | LNG AUC ([1]; women taking nevirapine): 147 ng·mL/h | AUClast Change (%) [2]: 32.0% | AUCτ Change (%) [2]: 32.6% | CL Change (%) [2]: −16.7% | Cmax Change (%) [2]: 27.0% | Cmin Change (%) [2]: 34.4% | T1/2 Change (%) [2]: 8.2% | Tmax Change (%) [2]: 33.3% | Vss Change (%) [2]: −13.2% | half-life ([2]; female, human, in vivo, po): 42.6 h | concentration at 24 h ([2]; female, human, serum, LNG Cmin, Control arm (n=10)): 3.7 ± 1.29 ng/mL | concentration at 24 h ([2]; female, human, serum, LNG Cmin, Ritonavir arm (n=5)): 4.97 ± 1.15 ng/mL | AUC ([2]; female, human, serum, po, Control arm (n=10)): 113 ± 37 ng·h/mL | AUC ([2]; female, human, serum, po, Ritonavir arm (n=5)): 150 ± 28 ng·h/mL | Cmax ([2]; female, human, serum, po, LNG Cmax, Control arm (n=10)): 7.62 ± 2.29 ng/mL | Cmax ([2]; female, human, serum, po, LNG Cmax, Ritonavir arm (n=5)): 9.68 ± 1.81 ng/mL | half-life [2, 4]: 46.2 h | increase in LNG exposure ([2]; women on ritonavir vs control): approximately 30%

C#C[C@]1(O)CC[C@H]2[C@@H]3CCC4=CC(=O)CC[C@@H]4[C@H]3CC[C@@]21C [norethindrone]
decrease in norethindrone AUC [3, 5]: 18% | increase in AUC of norethindrone [3, 5]: 110% | increase in norethindrone AUC ([3]; norethindrone progestin-only pill, women using ritonavir): 50%

C#CC1(O)CC[C@H]2[C@@H]3CCC4=CC(=O)CC[C@@H]4[C@H]3CC[C@@]21CC (stereo partly drawn) [norgestrel]
increase in norgestrel AUC ([1]; women taking ARV vs not taking ARV medication): approximately 30%
